Data as given in US20090118330A1, “Diurea derivatives” (priority 2004, published 2009).
Where a name gives a salt, the structure may show the parent alone. Read-outs that look alike come from different tables or passages of the source.

Columns and labels:
Type in all cases: cell-based
[1] = system: IL-2 production in human T-cells (CD4+); experiment: Inhibition of PMA/Ionomycin stimulated IL-2 production in human T-cells; details: T-cell
Method: The compounds to be evaluated were dissolved in DMSO and the dilution series of the compounds were prepared in DMSO. The series were further diluted in cell culture medium (RPMI 1640 with ultraglutamine, 10% foetal calf serum (FCS)) to obtain a final assay concentration of DMSO of 0.1% in 200 μl total volume. The compounds were plated (2 μl/well) on opaque white assay plates together with controls.
Peripheral blood mononuclear cells (PBMC) were isolated from human blood drawn from healthy volunteers, by density gradient separation over Ficoll-Paque. T-cells (CD4+) were obtained with positive selection using magnetic cell sorting (MACS). The cells were resuspended at 1×10^6 cells/ml in cell culture medium (RPMI 1640 with ultraglutamine, 10% FCS, 10 mM hepes, 1 mM sodium pyruvate and 0.1 mg/ml gentamicin).
The cells (1×10^5/well) were added to the assay plates containing the diluted compounds and pre-incubated for 30 min at 37° C. in a humidified atmosphere of 5% carbon dioxide. The cells were stimulated with 10 ng/ml phorbol myristate acetate (PMA) and 250 ng/ml ionomycin and the plates were incubated for 4 hours at 37° C. in a humidified atmosphere of 5% carbon dioxide. Approximately 100 μl of the supernatants were removed and transferred to a separate microtiter plate and the remaining cells were lysed (Nucleotide Releasing Reagent, ViaLight™, Cambrex). All the plates were kept at −20° C. pending analysis. Human interleukin-2 (IL-2) was analysed with a standard ELISA kit (OptEIA™, Pharmingen) according to the manufacturer's instructions. Viability was assessed by measuring adenosine triphosphate (ATP) content by adding luciferase (ATP monitoring reagent, ViaLight™, Cambrex) to the lysed cells and measuring luminescence, all according to the manufacturer's specifications.
The % effect of each concentration of compound was calculated compared to non-treated stimulated cells. Non-linear regression, a modified Hill-plot (y=(a−d)/(1+(x/c)b)+d) was used to calculate the concentration for y=50% (IC50).

[2] = system: IL-6 production in human peripheral blood mononuclear cells; experiment: Inhibition of PMA/Ionomycin stimulated IL-6 production in human PBMC; details: mean±S.D., n=3
[3] = system: TNF-α production in human peripheral blood mononuclear cells; experiment: Inhibition of PMA/Ionomycin stimulated TNF-α production in human PBMC; details: mean±S.D., n=3
[4] = system: IFN-γ production in human peripheral blood mononuclear cells; experiment: Inhibition of PMA/Ionomycin stimulated IFN-γ production in human PBMC; details: mean±S.D., n=3
[5] = system: human T-cells; experiment: Induction of apoptosis in human T-cells; details: Annexin V, PARP cleavage, DNA fragmentation methods
Method: The induction of apoptosis can be observed by measuring Annexin V-binding to cells (Van Engeland et al. 1998). Primary human CD4^+ T cells were isolated from peripheral blood from healthy volunteers as described above. Cells were cultured immediately after purification at a density of 2×10^6 cells/ml in RPMI 1640 medium supplemented with 10% FCS, Gentamycin (100 μg/ml), Hepes (10 mM) and Sodium Pyruvate (1 mM). Cells were stained with annexin V-FITC and propidium iodide by using the ApoAlert Annexin V-FITC Apoptosis Kit (Clontech) according to manufacturer's instructions. Flow cytometry analysis was performed using a FACScan (Becton Dickinson). […] Cell lysates were prepared by lysing 2×10^6 PBS-washed cells in 50 μl buffer containing 20 mM Tris-HCl, pH 7.7, 250 mM NaCl, 3 mM EDTA, 3 mM EGTA 0.5% NP-40 supplemented with 1 mM p-nitrophenyl phosphate (PNPP), 10 mM β-glycerophosphate, 100 μM Na-vanadate and 1 mM phenylmethansulfonyl fluoride (PMSF). The protein concentrations were determined by using Bio-Rads protein assay and thereafter equal amounts of protein was loaded onto precasted NuPAGE™ Tris-Bis gels (Novex). After electrophoresis, the proteins were transferred to nitrocellulose membrane and probed with a polyclonal rabbit antibody directed against PARP (Roche). […]

[6] = mean, n = 2, read-out: IC50 IL-2

Row | Compound | IC50 [1, 6] [nM] | other results
1 | CCN(CC)CCN(CCNC(=O)Nc1cccc(C(F)(F)F)c1)C(=O)Nc1cccc(C(F)(F)F)c1.Cl [Compound A, 1-(2-Diethylamino-ethyl)-3-(3-trifluoromethyl-phenyl)-1-{2-[3-(3-trifluoromethyl-phenyl)-ureido]-ethyl}-urea, hydrochloride] | 2000 | IC50 ([1]; mean±S.D., n=30, read-out: IC50 of IL-2 production): 2000 ± 1000 nM; IC50 [2]: 3000 ± 1000 nM; IC50 [3]: 3000 ± 1000 nM; IC50 [4]: 4000 ± 1000 nM; concentration at which significant apoptosis induction was observed [5]: > 4 µM
2 | CCN(CC)CCN(CCNC(=O)Nc1cccc(C(F)(F)F)c1)C(=O)Nc1ccc(C(F)(F)F)cc1 [Compound B, 1-(2-Diethylamino-ethyl)-3-(4-trifluoromethyl-phenyl)-1-{2-[3-(3-trifluoromethyl-phenyl)-ureido]-ethyl}-urea] | 2000 | –
3 | O=C(NCCN(CCN1CCCC1)C(=O)Nc1ccc(Cl)cc1)Nc1ccc(Cl)cc1 [Compound C, 3-(4-Chloro-phenyl)-1-{2-[3-(4-chloro-phenyl)-ureido]-ethyl}-1-(2-pyrrolidin-1-yl-ethyl)-urea] | 2000 | –
4 | O=C(NCCN(CCN1CCCCC1)C(=O)Nc1cccc(Cl)c1)Nc1cccc(C(F)(F)F)c1 [Compound D, 1-{2-[3-(3-Chloro-phenyl)-1-(2-piperidin-1-yl-ethyl)ureido]-ethyl}-3-(3-trifluoromethyl-phenyl)-urea] | 2000 | –
5 | CN(C)CCN(CCNC(=O)Nc1ccc(Br)cc1)C(=O)Nc1ccc(Br)cc1 [Compound E, 3-(4-Bromo-phenyl)-1-{2-[3-(4-bromo-phenyl)-ureido]-ethyl}-1-(2-dimethylamino-ethyl)-urea] | 1000 | –
6 | CCN(CC)CCN(CCNC(=O)Nc1ccccc1)C(=O)Nc1ccc(C(F)(F)F)cc1 [Compound F, 1-(2-Diethylamino-ethyl)-1-[2-(3-phenyl-ureido)-ethyl]-3-(4-trifluoromethyl-phenyl)-urea] | 3000 | –
7 | O=C(NCCN(CCN1CCCCC1)C(=O)Nc1ccc(C(F)(F)F)cc1)Nc1cccc(C(F)(F)F)c1 [Compound G, 1-(2-Piperidin-1-yl-ethyl)-3-(4-trifluoromethyl-phenyl)-1-{2-[3-(3-trifluoromethyl-phenyl)-ureido]-ethyl}-urea] | 1000 | –
8 | O=C(NCCN(CCN1CCCC1)C(=O)Nc1ccc(C(F)(F)F)cc1)Nc1cccc(C(F)(F)F)c1 [Compound H, 1-{2-[1-(2-Pyrrolidin-1-yl-ethyl)-3-(4-trifluoromethylphenyl)-ureido]-ethyl}-3-(3-trifluoromethyl-phenyl)-urea] | 1000 | –
9 | O=C(NCCN(CCN1CCCC1)C(=O)Nc1ccc(C(F)(F)F)cc1)Nc1ccc2ncccc2c1 [Compound I, 1-{2-[1-(2-Pyrrolidin-1-yl-ethyl)-3-(4-trifluoromethylphenyl)-ureido]-ethyl}-3-quinolin-6-yl-urea] | 5000 | –
10 | O=C(NCCN(CCN1CCCC1)C(=O)Nc1ccc(C(F)(F)F)cc1)Nc1ccc(C(F)(F)F)cc1 [Compound J, 1-(2-Pyrrolidin-1-yl-ethyl)-3-(4-trifluoromethyl-phenyl)-1-{2-[3-(4-trifluoromethyl-phenyl)-ureido]-ethyl}-urea] | 3000 | –
11 | O=C(NCCN(CCN1CCCCC1)C(=O)Nc1cccc(C(F)(F)F)c1)Nc1cccc(C(F)(F)F)c1 [Compound K, 1-(2-Piperidin-1-yl-ethyl)-3-(3-trifluoromethyl-phenyl)-1-{2-[3-(3-trifluoromethyl-phenyl)-ureido]-ethyl}-urea] | 2000 | –
12 | CN(C)CCN(CCNC(=O)Nc1ccc(Cl)cc1)C(=O)Nc1ccc(C(F)(F)F)cc1 [Compound L, 1-{2-[3-(4-Chloro-phenyl)-ureido]-ethyl}-1-(2-dimethylamino-ethyl)-3-(4-trifluoromethyl-phenyl)-urea, hydrochloride] | 2000 | –
13 | CCN(CC)CCN(CCNC(=O)Nc1cc(Cl)nc(Cl)c1)C(=O)Nc1ccc(Br)cc1 [Compound M, 1-{2-[3-(4-Bromo-phenyl)-1-(2-diethylamino-ethyl)ureido]-ethyl}-3-(2,6-dichloro-pyridin-4-yl)-urea] | 2000 | –
